Source: ChEMBL document CHEMBL5506057, “Discovery and Optimization of Potent, Efficacious and Selective Inhibitors Targeting EGFR Exon20 Insertion Mutations” (J Med Chem, 2024)
Active and inactive are the calls of the source. No cut-off for these calls is given here.

Legend:
[1] = Lipophilicity, logD of compound in octanol and aqueous buffer at pH 7.4 incubated for 2 hrs by shake-flask method based LC-MS/MS analysis; assay type: physicochemical
[2] = Metabolic stability in human liver microsomes assessed as intrinsic clearance at 1 uM incubated for 30 mins in presence of NADPH by LC-MS/MS analysis; assay type: ADME, Microsome; conditions: read-out: CLH
[3] = Metabolic stability in rat hepatocytes assessed as intrinsic clearance measured per 10^6 cells at 1 uM incubated for 120 mins by LC-MS/MS analysis; assay type: ADME, cell-based, Hepatocyte; conditions: read-out: CLH
[4] = Metabolic stability in CD-1 mouse hepatocytes assessed as intrinsic clearance measured per 10^6 cells at 1 uM incubated for 120 mins by LC-MS/MS analysis; assay type: ADME, cell-based, Hepatocyte; conditions: read-out: CLH
[5] = Duration (time) of SCID mouse free plasma concentration cover over EGFR insSVD cell IC50 at 50 mg/kg, po; assay type: ADME, organism-based; conditions: in vivo
[6] = Inhibition of EGFR Ex20ins ASV mutant (unknown origin) transfected in human NCI-H2073 cells; assay type: cell-based
[7] = Inhibition of EGFR Ex20ins NPG mutant (unknown origin) transfected in human NCI-H2073 cells; assay type: cell-based
[8] = biological target: T1, Tyrosine-protein kinase BTK (Homo sapiens, UniProt Q06187); test: Inhibition of BTK (unknown origin) at 0.1 uM relative to control
[9] = biological target: T2, Receptor tyrosine-protein kinase erbB-4 (Homo sapiens, UniProt Q15303); test: Inhibition of ERBB4 (unknown origin) at 0.1 uM relative to control
[10] = biological target: TRAF2 and NCK-interacting protein kinase (Homo sapiens) (UniProt Q9UKE5); test: Inhibition of TNIK (unknown origin) at 0.1 uM relative to control
[11] = biological target: Misshapen-like kinase 1 (Homo sapiens) (UniProt Q8N4C8); test: Inhibition of MINK1 (unknown origin) at 0.1 uM relative to control
[12] = biological target: Tyrosine-protein kinase Blk (Homo sapiens) (UniProt P51451); test: Inhibition of BLK (unknown origin) at 0.1 uM relative to control
[13] = biological target: T1, Tyrosine-protein kinase BTK; test: Inhibition of BTK (unknown origin)
[14] = biological target: T2, Receptor tyrosine-protein kinase erbB-4; test: Inhibition of ERBB4 (unknown origin)
[15] = Antitumor activity against human NCI-H2073 cells harboring EGFR D770_N771insSVD mutant xenografted in female SCID mouse assessed as tumor growth inhibition at 100 mg/kg, po administered once daily for 14 days relative to control; assay type: functional; conditions: NCI-H2073, 336 h, time 14 day, read-out: TGI
[16] = Toxicity in female SCID mouse xenografted with human NCI-H2073 cells harboring EGFR D770_N771insSVD mutant assessed as body weight loss at 100 mg/kg, po administered once daily for 14 days; assay type: organism-based; conditions: in vivo, 336 h, time 14 day
[17] = Antitumor activity against human NCI-H2073 cells harboring wildtype EGFR xenografted in female SCID mouse assessed as tumor growth inhibition at 100 mg/kg, po administered once daily for 15 days relative to control; assay type: functional; conditions: NCI-H2073, 360 h, time 15 day, read-out: TGI
Mus musculus = test: In vivo inhibition of EGFR phosphorylation in female SCID mouse xenografted with NCI-H2073 cells harboring EGFR D770_N771insSVD mutant at 100 mg/kg, po measured after 1 to 6 hrs by immunoblotting analysis; assay type: functional, organism-based; conditions: time 1-6 hrs
MDR1, BCRP = test: Efflux ratio of apparent permeability across basolateral to apical side over apical to basolateral side in MDCKII-MDR1-BCRP cells at 1 uM incubated for 90 mins; assay type: ADME, cell-based, Canis lupus familiaris; conditions: dog

T2 sequence (Q15303 whole entry): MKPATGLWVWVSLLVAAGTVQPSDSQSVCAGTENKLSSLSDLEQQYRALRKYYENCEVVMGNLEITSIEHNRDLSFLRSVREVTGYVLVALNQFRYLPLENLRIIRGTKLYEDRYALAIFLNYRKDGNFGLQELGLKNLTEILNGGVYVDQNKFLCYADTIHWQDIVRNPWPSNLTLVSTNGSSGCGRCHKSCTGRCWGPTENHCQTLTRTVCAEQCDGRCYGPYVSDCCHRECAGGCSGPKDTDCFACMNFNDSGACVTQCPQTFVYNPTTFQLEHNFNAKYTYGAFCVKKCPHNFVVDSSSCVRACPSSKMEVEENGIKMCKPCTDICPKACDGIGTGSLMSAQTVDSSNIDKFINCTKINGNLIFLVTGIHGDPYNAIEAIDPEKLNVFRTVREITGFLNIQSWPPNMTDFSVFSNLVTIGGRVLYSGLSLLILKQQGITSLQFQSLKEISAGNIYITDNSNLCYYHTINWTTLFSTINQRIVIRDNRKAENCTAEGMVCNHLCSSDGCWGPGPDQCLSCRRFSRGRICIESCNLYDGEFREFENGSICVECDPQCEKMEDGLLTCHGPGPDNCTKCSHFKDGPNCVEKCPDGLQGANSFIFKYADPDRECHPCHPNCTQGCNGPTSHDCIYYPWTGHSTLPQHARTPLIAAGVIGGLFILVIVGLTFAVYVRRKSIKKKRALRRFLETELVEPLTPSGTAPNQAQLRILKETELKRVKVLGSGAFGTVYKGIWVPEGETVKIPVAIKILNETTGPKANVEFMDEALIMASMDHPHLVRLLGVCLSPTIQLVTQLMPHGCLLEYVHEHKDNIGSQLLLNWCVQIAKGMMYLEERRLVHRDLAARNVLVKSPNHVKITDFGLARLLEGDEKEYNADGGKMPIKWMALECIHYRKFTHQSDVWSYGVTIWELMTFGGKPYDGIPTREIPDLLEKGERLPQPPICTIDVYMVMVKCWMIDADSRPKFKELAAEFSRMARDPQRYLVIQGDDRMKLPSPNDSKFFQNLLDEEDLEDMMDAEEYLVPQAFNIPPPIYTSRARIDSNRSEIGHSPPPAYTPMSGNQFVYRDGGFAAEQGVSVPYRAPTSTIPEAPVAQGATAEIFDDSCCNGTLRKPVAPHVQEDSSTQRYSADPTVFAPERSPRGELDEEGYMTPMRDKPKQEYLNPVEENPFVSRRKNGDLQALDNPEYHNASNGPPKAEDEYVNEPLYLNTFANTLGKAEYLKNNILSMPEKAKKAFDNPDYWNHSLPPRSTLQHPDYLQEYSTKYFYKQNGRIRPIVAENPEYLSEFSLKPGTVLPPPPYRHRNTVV
T1 sequence (Q06187 whole entry): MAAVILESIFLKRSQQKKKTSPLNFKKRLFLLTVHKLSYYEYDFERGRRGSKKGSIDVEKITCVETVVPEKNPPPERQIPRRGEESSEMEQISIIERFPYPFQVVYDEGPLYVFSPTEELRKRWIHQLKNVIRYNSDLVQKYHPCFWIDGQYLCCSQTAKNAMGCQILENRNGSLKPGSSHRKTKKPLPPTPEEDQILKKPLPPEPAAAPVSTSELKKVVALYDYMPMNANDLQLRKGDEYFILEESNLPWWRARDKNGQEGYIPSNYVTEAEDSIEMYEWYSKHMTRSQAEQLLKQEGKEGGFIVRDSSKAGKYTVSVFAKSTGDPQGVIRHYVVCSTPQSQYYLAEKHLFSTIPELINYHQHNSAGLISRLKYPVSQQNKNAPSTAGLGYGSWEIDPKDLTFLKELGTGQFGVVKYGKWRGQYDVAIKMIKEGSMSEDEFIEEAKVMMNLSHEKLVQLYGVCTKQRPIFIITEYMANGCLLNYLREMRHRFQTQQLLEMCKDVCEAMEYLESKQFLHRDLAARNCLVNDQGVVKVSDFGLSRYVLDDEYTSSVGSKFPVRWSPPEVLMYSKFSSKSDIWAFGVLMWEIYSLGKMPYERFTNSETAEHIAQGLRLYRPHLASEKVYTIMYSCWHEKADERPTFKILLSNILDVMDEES
Sequence of TRAF2 and NCK-interacting protein kinase (Homo sapiens) (Q9UKE5 whole entry, looked up): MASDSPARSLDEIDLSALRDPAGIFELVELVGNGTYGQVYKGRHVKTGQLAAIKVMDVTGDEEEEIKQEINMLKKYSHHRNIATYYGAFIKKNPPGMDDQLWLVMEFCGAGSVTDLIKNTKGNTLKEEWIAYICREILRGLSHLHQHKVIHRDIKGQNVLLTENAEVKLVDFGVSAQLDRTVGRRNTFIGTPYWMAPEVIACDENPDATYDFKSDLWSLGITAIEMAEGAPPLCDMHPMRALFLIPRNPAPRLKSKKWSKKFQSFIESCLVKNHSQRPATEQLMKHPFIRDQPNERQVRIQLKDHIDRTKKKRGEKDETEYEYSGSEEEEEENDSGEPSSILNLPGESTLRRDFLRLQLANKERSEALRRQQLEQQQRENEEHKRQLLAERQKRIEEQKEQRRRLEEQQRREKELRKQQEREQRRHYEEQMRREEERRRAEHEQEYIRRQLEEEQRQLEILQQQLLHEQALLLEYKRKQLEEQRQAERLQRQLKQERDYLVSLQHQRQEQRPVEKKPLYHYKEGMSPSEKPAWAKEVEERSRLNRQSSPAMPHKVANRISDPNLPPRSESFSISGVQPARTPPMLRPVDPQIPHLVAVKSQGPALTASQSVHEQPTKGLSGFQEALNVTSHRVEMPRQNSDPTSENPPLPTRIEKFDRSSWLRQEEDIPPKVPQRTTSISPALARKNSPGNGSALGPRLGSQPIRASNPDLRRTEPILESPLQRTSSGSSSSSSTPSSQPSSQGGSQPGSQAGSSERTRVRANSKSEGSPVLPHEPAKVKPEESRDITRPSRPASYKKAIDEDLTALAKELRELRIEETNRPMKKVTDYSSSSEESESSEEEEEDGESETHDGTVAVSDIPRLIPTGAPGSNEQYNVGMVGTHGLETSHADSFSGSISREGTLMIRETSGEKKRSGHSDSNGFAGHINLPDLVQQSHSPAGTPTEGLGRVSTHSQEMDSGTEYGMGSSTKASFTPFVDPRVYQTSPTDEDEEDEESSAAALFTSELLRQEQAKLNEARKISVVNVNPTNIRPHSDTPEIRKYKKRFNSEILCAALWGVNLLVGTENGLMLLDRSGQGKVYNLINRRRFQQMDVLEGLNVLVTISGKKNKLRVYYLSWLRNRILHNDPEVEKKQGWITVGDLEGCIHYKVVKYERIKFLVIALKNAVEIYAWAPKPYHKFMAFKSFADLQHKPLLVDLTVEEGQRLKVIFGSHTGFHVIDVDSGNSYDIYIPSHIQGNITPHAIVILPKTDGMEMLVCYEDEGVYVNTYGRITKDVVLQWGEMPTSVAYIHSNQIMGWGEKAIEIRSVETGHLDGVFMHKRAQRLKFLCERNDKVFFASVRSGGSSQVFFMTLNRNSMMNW
Sequence of Misshapen-like kinase 1 (Homo sapiens) (Q8N4C8 whole entry, looked up): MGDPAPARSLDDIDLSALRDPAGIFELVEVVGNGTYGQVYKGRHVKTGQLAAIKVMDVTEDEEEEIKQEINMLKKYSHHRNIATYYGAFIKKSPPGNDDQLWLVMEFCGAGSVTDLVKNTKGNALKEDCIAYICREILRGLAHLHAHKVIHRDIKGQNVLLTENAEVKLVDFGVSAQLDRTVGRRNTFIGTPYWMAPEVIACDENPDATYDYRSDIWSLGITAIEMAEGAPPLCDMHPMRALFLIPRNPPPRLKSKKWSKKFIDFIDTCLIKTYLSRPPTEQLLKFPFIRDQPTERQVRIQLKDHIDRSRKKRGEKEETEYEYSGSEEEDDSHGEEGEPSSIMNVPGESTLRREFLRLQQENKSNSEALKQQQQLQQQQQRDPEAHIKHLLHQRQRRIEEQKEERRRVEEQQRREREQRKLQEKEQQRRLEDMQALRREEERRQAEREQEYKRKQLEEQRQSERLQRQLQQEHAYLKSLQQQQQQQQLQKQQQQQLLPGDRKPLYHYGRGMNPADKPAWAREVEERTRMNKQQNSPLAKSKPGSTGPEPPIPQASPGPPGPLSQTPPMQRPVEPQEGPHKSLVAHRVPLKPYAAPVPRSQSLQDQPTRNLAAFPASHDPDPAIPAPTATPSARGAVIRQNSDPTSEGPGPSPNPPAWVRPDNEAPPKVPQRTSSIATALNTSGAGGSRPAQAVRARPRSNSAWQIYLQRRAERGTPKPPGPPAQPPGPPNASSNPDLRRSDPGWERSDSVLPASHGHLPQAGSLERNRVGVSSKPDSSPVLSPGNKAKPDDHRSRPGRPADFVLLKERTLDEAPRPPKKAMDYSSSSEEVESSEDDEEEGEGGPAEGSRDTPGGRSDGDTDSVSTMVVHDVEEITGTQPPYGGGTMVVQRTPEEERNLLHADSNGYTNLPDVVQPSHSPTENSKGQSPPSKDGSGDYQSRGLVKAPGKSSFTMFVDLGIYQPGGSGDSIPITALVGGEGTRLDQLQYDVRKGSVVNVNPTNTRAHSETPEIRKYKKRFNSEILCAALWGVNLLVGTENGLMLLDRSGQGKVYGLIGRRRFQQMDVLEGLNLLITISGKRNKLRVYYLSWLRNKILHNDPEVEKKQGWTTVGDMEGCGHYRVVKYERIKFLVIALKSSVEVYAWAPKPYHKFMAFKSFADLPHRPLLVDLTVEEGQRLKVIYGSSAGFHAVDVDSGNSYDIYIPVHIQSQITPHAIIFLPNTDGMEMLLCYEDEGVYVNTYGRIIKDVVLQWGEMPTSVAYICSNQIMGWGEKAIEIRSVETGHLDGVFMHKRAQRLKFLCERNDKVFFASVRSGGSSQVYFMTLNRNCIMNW

| Structure (SMILES) | logD at 2 h [1] | microsomal CLint at 1 µM [2] [µL/min/mg] | hepatocyte CLint at 1 µM [3] [µL/min/1e6 cells] | hepatocyte CLint at 1 µM [4] [µL/min/1e6 cells] | Time [5] [h] | IC50 [6] [nM] | IC50 [7] [nM] | inhibition [8] [%] | inhibition [9] [%] | inhibition [10] [%] | inhibition [11] [%] | inhibition [12] [%] | IC50 [13] [nM] | IC50 [14] [nM] | inhibition in vivo at 100 mg/kg [15] [%] | Activity [16] [%] | inhibition in vivo at 100 mg/kg [17] [%] | inhibition (Mus musculus) | efflux ratio at 1.5 h, 1 µM (MDR1, BCRP) |
| --- | --- | --- | --- | --- | --- | --- | --- | --- | --- | --- | --- | --- | --- | --- | --- | --- | --- | --- | --- |
| C=CC(=O)N1CC[C@H](n2cc(-c3ccncc3)c(-c3cccc(/C=C/c4ncc(C5CC5)o4)c3)n2)C1 | 4.8 | 214 | 43 | 35 | 12 | 67 | 55 | 99 | 99 | 57 | 55 | 51 | 10 | 9 | 62 | < 10 | 13 | Active |  |
| C=CC(=O)Nc1cc(Nc2nccc(-c3cn(C)c4ccccc34)n2)c(OC)cc1N(C)CCN(C)C [OSIMERTINIB] |  |  |  |  |  |  |  |  |  |  |  |  |  |  |  |  |  |  | 3.2 |
